The source made the active and inactive calls. The rule behind the calls is not given here.
Columns and labels:
Format in all cases: functional, cell-based
[1] = test system: PC-3; experiment: Antimigratory activity against human PC3 cells assessed as inhibition of cell migration after 24 hrs by wound healing assay; conditions: PC-3, 24 h
[2] = test system: PC-3; experiment: Antiinvasive activity against human PC3 cells assessed as inhibition of cells invaded across basement membrane extract at 50 uM by calcein-acetomethylester fluorescence analysis
[3] = test system: PC-3; experiment: Antimigratory activity against human PC3 cells assessed as migrated cells measured under microscope at 37 uM after 24 hrs by wound healing assay relative to control

| SMILES | IC50 ([1]; read-out: IC50) [µM] | IC50 ([1]; read-out: pIC50 (converted)) [µM] | Activity [2] | Activity [3] |
| --- | --- | --- | --- | --- |
| C=C1CC[C@H](C(C)C)[C@@H]2[C@H]1[C@H]1CC(=C)[C@@H](O)CC[C@@](C)(OC(C)=O)[C@@H]2O1 | 44 | 44 |  |  |
| CC(=O)O[C@]1(C)CC[C@H](C(C)C)[C@@H]2[C@H]1[C@H]1C[C@]3(C)CCC[C@@](C)(O3)[C@@H]2O1 | 52 | 52 |  |  |
| C=C1CC[C@H](C(C)C)[C@@H]2[C@H]1[C@H]1CC(=C)[C@@H](OC(C)=O)CC[C@@](C)(OC(C)=O)[C@@H]2O1 | 36 | 36 |  |  |
| C=C1CC[C@H](C(C)C)[C@@H]2[C@H]1[C@H]1CC(=C)[C@@H](OC(=O)NCCCCCCCC)CC[C@@](C)(O)[C@@H]2O1 | 122 | 122 |  |  |
| C=C1CC[C@H](C(C)C)[C@@H]2[C@H]1[C@H]1CC(=C)[C@@H](OC(=O)Nc3ccccc3)CC[C@@](C)(O)[C@@H]2O1 | 57 | 57 |  |  |
| C=C1CC[C@H](C(C)C)[C@@H]2[C@H]1[C@H]1CC(=C)[C@@H](OC(=O)NCCCCC)CC[C@@](C)(O)[C@@H]2O1 | 43 | 43 |  |  |
| C=C1CC[C@H](C(C)C)[C@@H]2[C@H]1[C@H]1CC(=C)[C@@H](OC(=O)NCCCC)CC[C@@](C)(O)[C@@H]2O1 | 37 | 37 | Active | Active |
| C=C1CC[C@H](C(C)C)[C@@H]2[C@H]1[C@H]1CC(=C)[C@@H](OC(=O)N(Cc3ccccc3)C(=O)NCc3ccccc3)CC[C@@](C)(O)[C@@H]2O1 | 30 | 30 | Active |  |
| C=CCNC(=O)N(CC=C)C(=O)N(CC=C)C(=O)O[C@H]1CC[C@@](C)(O)[C@@H]2O[C@H](CC1=C)[C@H]1C(=C)CC[C@H](C(C)C)[C@H]12 | 97 | 97 |  |  |
| C=C1CC[C@H](C(C)C)[C@@H]2[C@H]1[C@H]1CC(=C)[C@@H](OC(=O)NCCCCl)CC[C@@](C)(O)[C@@H]2O1 | 67 | 67 |  |  |
| C=C1C[C@H]2O[C@H]([C@H]3[C@@H]2[C@]2(CC[C@@H]3C(C)C)CO2)[C@](C)(O)CC[C@@H]1OC(=O)N(Cc1ccccc1)C(=O)NCc1ccccc1 | 70 | 70 |  |  |
| C=C1C[C@H]2O[C@H]([C@H]3[C@@H]2[C@]2(CC[C@@H]3C(C)C)CO2)[C@](C)(O)CC[C@@H]1OC(=O)NCCCC (relative stereo) | 90 | 90 |  |  |
| C=C1C[C@H]2O[C@H]([C@H]3[C@@H]2[C@]2(CC[C@@H]3C(C)C)CO2)[C@](C)(O)CC[C@@H]1O (relative stereo) | 160 | 160 | Active |  |
| C=C1CC[C@H](C(C)C)[C@@H]2[C@H]1[C@H]1C[C@](C)(O)[C@@H](OC)CCC(C)(O)[C@@H]2O1 (single isomer, unassigned) [SCLEROPHYTIN F METHYL ETHER] | 59 | 59 |  |  |
| C=C1CC[C@H](C(C)C)[C@@H]2[C@H]1[C@H]1C/C(C)=C\CC[C@@](C)(O)[C@@H]2O1 [6Z-CLADIELLIN] | 84 | 84 |  |  |
| C=C1CC[C@H](C(C)C)[C@@H]2[C@H]1[C@@H]1CC(=C)[C@@H](O)CC[C@](C)(O)[C@H]2O1 [CLADIELLISIN] | 88 | 88 | Active |  |
| C=C1C[C@H]2O[C@H]([C@@H]3[C@@H](C(C)C)[C@H](O)C[C@@](C)(OC(C)=O)[C@@H]32)[C@](C)(OC(C)=O)CC[C@@H]1O [KLYSIMPLEXIN E] | 125 | 125 |  |  |
| CC(=O)O[C@]1(C)CC[C@H](C(C)C)[C@@H]2[C@H]1[C@H]1C[C@](C)(O)[C@@H](O)CC[C@@](C)(OC(C)=O)[C@@H]2O1 [KLYSIMPLEXIN G] | 16 | 16 |  |  |
| CCCC(=O)O[C@]1(C)CC[C@H](C(C)C)[C@@H]2[C@H]1[C@H]1C[C@](C)(O)[C@@H](O)CC[C@@](C)(OC(C)=O)[C@@H]2O1 [PACHYCLADIN A] | 5 | 5 |  |  |
| C=C1C[C@H]2O[C@H]([C@@H]3[C@@H](C(C)C)[C@H](O)C[C@@](C)(OC(=O)CCC)[C@@H]32)[C@](C)(OC(C)=O)CC[C@@H]1O [PACHYCLADIN B] | 88 | 88 |  |  |
| C=C1CC[C@H](C(C)C)[C@@H]2[C@H]1[C@H]1CC(=C)[C@@H](OC(C)=O)CC[C@@](C)(O)[C@@H]2O1 [PACHYCLADIN C] | 56 | 56 |  |  |
| C=C1CC[C@H](C(C)C)[C@@H]2[C@H]1[C@H]1CC(=C)[C@]3(O)CC[C@@](C)(O3)[C@@H]2O1 [PACHYCLADIN D] | 75 | 75 |  |  |
| C=C1C[C@H]2O[C@H]([C@H]3[C@@H]2[C@](C)(OC(C)=O)CC[C@@H]3C(C)C)[C@@]2(C)CC[C@]1(O)O2 [PACHYCLADIN E] | 64 | 64 |  |  |
| C=C1CC[C@H](C(C)C)[C@@H]2[C@H]1[C@H]1C[C@](C)(O)[C@@H](OCC)CC[C@@](C)(O)[C@@H]2O1 [PATAGONICOL] | 76 | 76 |  |  |
| C=C1CC[C@H](C(C)C)[C@@H]2[C@H]1[C@H]1C[C@](C)(O)[C@@H](O)CC[C@@](C)(O)[C@@H]2O1 [SCLEROPHYTIN A] | 84 | 84 |  |  |
| C=C1CC[C@H](C(C)C)[C@@H]2[C@H]1[C@H]1C[C@](C)(O)[C@@H](O)CC[C@@](C)(OC(C)=O)[C@@H]2O1 [SCLEROPHYTIN B] | 160 | 159 |  |  |

Reference: ChEMBL document CHEMBL1759878, “Design of semisynthetic analogues and 3D-QSAR study of eunicellin-based diterpenoids as prostate cancer migration and invasion inhibitors” (Eur J Med Chem, 2011)
